Paper PMC12973313 (Chemical Science, 2026)
Values joined by “and” are separate entries in the source; they are usually repeats but may differ in a detail not shown here. Equal values may be shown once.

Assays:
[1] = system: Caco-2 cell monolayer; assay: Bi-directional permeability in Caco-2 cell line; assay type: in vitro ADME
From the text: Next, to gauge the suitability of SSAs for oral dosing, 9 was subjected to a Caco-2 permeability assay which is used to both predict human intestinal permeability and investigate drug efflux, predicting in vivo compound absorption. This assay allows assessment of a compound's ability to undergo transport from the apical to the basolateral (A–B) compartments of the cell monolayer and vice versa (B–A). […] This is likely to result in poor absorption when dosed orally and therefore further development would be necessary for these agents to become suitable for oral administration. […]
(§1) The ionspray voltage was 5500V.
Bi-directional Permeability in Caco-2 Cell Line:
The bi-directional permeability in Caco-2 cell lines was determined by seeding cells onto an HTS Transwell plate. Cells were cultivated for 14-18 days in a cell culture incubator at 37°C, 5% CO2, 95% relative humidity. Cell culture medium was replaced every other day. To assess monolayer integrity the transepithelial electrical resistance (TEER) across the monolayer was measured using Millicell Epithelial volt-ohm meter prior to assay and Lucifer yellow (LY) fluorescence measurement post-assay.
Test compound was prepared in DMSO and diluted in Hank’s Balanced Saline Solution (HBSS, pH 7.4) to a final concentration of 5 µM. Compound was added to the donor compartment of the transwell plate for both apical to basolateral (A>B) and basolateral to apical (B>A) measurements, with blank HBSS being added to the receiver compartment. The transwell plate was then incubated at 37°C, 5% CO2 for 2 hours.
Samples were taken at T=0 and T=2 hours determine the concentration of initial donor sample, and the concentration of receiver and donor wells post-incubation, respectively.
The samples were quenched with solvent containing internal standard (IS). The supernatant was mixed with an appropriate volume of ultra-pure water before LC-MS/MS analysis.
Samples were analysed using a Shimadzu Nexera LC Binary Gradient LC-30AD (Shimadzu Inc, Kyoto), coupled to a Sciex 6500+ (AB Inc., Illinois). Separation of compounds was achieved using a HALO 90Å biphenyl (2.7µm,2.1x50mm) (Advanced Materials Technology, Wilmington) column at a temperature of 40°C. A binary mobile phase gradient at a flow rate of 0.7 mL/min was used. Initial LC conditions comprised of 95% solvent A (0.1% formic acid in water) and 5% solvent B (0.1% formic acid in acetonitrile). This was ramped to 95% solvent B at 0.7 minutes, held for 0.5 minutes and then immediately returned to initial conditions. Sample analysis was by electrospray ionisation combined with multiple reaction monitoring in positive ion mode. The ion spray voltage was 5500V.
In vitro Absorption, Distribution and Metabolism results
Table S1 – Result from solubility assays performed in PBS pH 7.4 for SSA 9.
Table S2 – Summary of results from Caco-2 permeability assays for SSA 9. Papp is given as […]
cm/s. A = apical; B = basolateral. Recovery = % SSA recovered from the assay after 2 hours.
ID Papp (A-B) % Recovery Papp (B-A) % Recovery Efflux Ratio
Table S3 – Summary of results from human plasma protein binding assays for SSA 9. % Bound = % of SSA bound to the plasma proteins after 6 hours incubation at 37 °C. Low % […]
= > 99 %. % Recovery = % SSA recovered from the assay after 6 hours.
ID % Bound % Recovery % Stability
Table S4 – Summary of results from mouse, rat and human microsomal stability assays for SSA 9. The in vitro half-life (t1/2) and microsomal intrinsic clearance (CLint) were calculated from the elimination rate (k, the slope of the natural log of concentration verses time curve), assuming first order kinetics, using the formulae t1/2 = 0.693/-k and CLint = 0.693/t1/2 […]. This compound would be classed as a low clearance compound in all three species. […]

[2] = Metabolic stability in liver microsomes; assay type: in vitro ADME, rat
Method: Following this, the metabolic stability of 9 was determined against mouse, rat, and human liver microsomes. […] Within this assay the stability of the intact parent compound is monitored with respect to time, during incubation at 37 °C in the presence and absence of the co-factor NADPH – required for cytochrome p450 activity.
Metabolic Stability in Rat, Mouse and Human Liver Microsomes:
The metabolic stability of compounds at a concentration of 1 µM, in rat, mouse and human liver microsomes (BD Gentest, Franklin Lakes NJ) was measured following incubation with […]
(NADPH) at 37 °C. Aliquots of each incubation were removed at 0.5, 5, 15, 30 and 60 minutes. The reaction was stopped by the addition of cold acetonitrile containing analytical […]
Samples were then centrifuged at 3,220 g for 40 minutes. The supernatant was aliquoted and added to ultra-pure H2O in a 1:1 ratio in preparation for LC-MS/MS analysis.
Incubations were conducted in duplicate; control incubations (substituting PBS for NADPH) were conducted simultaneously.
Samples were analysed using a Shimadzu Shimadzu Nexera LC Binary Gradient LC-30AD (Shimadzu Inc, Kyoto), coupled to a Sciex 5500 mass spectrometer (AB Inc., Illinois) for rat and mouse microsomes and a Sciex 6500+ for human microsomes. Separation achieved using an XSelect HSS T3 column (2.5µm, 50 x 2.1 mm) (Waters Ltd., Wilmslow) at a temperature of 40°C and a binary mobile phase gradient at a flow rate of 0.7 mL/min. Initial […]
(0.1% formic acid in acetonitrile).
0.5 minutes and then immediately returned to initial conditions. Sample analysis was by electrospray ionisation combined with multiple reaction monitoring in positive ion mode.
as §1
Bi-directional Permeability in Caco-2 Cell Line: […]

[3] = design: method as in PMID 29633393; settings: equal K/dimerization model, DMSO-d6 0.5% H2O; cited from earlier work
[4] = H2O 5% EtOH, 5.56 mM; cited from earlier work

O=C(Nc1ccc(C(F)(F)F)cc1)N[C@H](Cc1ccccc1)C(=O)O [SSA 9]
Papp (B-A) ([1]; 5 µM, 2 hours, basolateral to apical): 16.76 10-6 cm/s | Efflux Ratio ([1]; Caco-2): 96.91 | Recovery (%) AP-BL ([1]; after 2 hours): 110.78% | Recovery (%) BL-AP ([1]; after 2 hours): 97.74% | microsomal CLint at 1 µM ([2]; liver microsomes, rat microsomes): < 7.5 µL/min/mg | Hepatic Extraction Ratio (ER) ([2]; rat): < 0.21 | Predicted Hepatic CLH ([2]; rat): < 14.42 mL/min/kg | In vitro t1/2 ([2]; rat, 1 µM, 0.5 mg protein/mL): > 3.0797 h | Remaining percentage (%) 0.5 min ([2]; rat, +Cofactors): 100.00% | Remaining percentage (%) 5 min ([2]; rat, +Cofactors): 107.16% | Remaining percentage (%) 15 min ([2]; rat, +Cofactors): 104.62% | Remaining percentage (%) 30 min ([2]; rat, +Cofactors): 102.68% | Remaining percentage (%) 60 min ([2]; rat, +Cofactors): 102.41% | Remaining percentage (%) 0.5 min ([2]; rat, -Cofactors): 100.00% | Remaining percentage (%) 60 min ([2]; rat, -Cofactors): 107.67% | half-life at 1 µM ([2]; rat, liver microsomes, rat, 1 µM, 0.5 mg protein/mL, read-out: In vitro t1/2): > 3.08 h | CLint scaled at 1 µM ([2]; rat, liver microsomes, read-out: Scale-up CLint): < 18.3 mL/min/kg

O=C(O)CNC(=O)Nc1ccc(C(F)(F)F)cc1 [SSA 1]
Kdim (M^-1) [3]: 41 (±1.3%)[30] M^−1 | dH (nm), DLS peak maxima [4]: 220 nm and 220 (ref. [30]) nm
